Laboratory results: paper PMC8752738, “A propolis-derived small molecule ameliorates metabolic syndrome in obese mice by targeting the CREB/CRTC2 transcriptional complex” (Nature Communications, 2022)
Values joined by “and” are separate entries in the source; they are usually repeats but may differ in a detail not shown here. Equal values may be shown once.

Key:
primary hepatocytes = test: MTT assay, primary hepatocytes; assay type: cell-based, mouse; details: for Relative MTT absortance-48H, mean: n=5 (0 μM = 100); for Relative MTT absortance-48H: Supp. fig.3b, individual replicates
Description: Primary hepatocytes were exposed to APC at indicated concentrations for 48-h, then co-incubated with methyl thiazolyl tetrazolium (0.5 mg/mL in PBS, Sigma) solution for 5-h. After removing the solution, the purple crystals were dissolved using DMSO, and the absorbance was measured at 550 nm.

CREB / CRTC1 interaction = molecular target: T1, CREB / CRTC1 interaction (Homo sapiens, UniProt P16220); test: Co-immunoprecipitation of GFP-CRTC1 by MYC-CREB, HEK293T; assay type: cell-based; details: overexpression HEK293T cells, APC 10 μM
T1 construct: expressed in transfected cells; host or cells: HEK293T
T1 sequence (P16220 whole entry): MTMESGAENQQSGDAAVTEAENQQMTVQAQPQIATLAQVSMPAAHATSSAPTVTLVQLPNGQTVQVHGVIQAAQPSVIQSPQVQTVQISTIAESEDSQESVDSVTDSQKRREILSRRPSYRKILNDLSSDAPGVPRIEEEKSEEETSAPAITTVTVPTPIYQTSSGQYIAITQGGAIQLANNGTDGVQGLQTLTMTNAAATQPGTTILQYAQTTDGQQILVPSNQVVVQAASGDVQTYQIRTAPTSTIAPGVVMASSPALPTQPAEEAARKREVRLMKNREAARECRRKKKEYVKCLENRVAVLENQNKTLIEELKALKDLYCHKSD
Description: 1 Supplementary Figure 2.
2 a) Immunoblot of HA-P300 recovered from HEK293T cell lysate using GST-CREB beads. APC
3 (10 μM) was incubated with cells for 1-h before FKS (10 nM) stimulation and was included in the
4 following pull-down mixtures (n=3). One of two independent experiments presented here.
5 b) Immunoblot for recovered GFP-CRTC1 or (c) GFP-CRTC3 immunoprecipitated by MYC-CREB
6 from overexpression HEK293T cell line. APC (10 μM) was incubated with cells for 1-h before FKS
7 (10 nM) stimulation and was included in the following pull-down mixtures. One of two independent
8 experiments presented here.
9 d) SPR sonogram traces of APC binding with HIS-CREB proteins immobilized to NTA-chip. The
10 concentration series of APC was as indicated.
11 e) SPR sonogram traces of APC flowing through HIS-CRTC2-S171A proteins immobilized on
12 NTA-chip. The concentration of APC was as indicated.
13 f) The luciferase enzymatic activity of HEK293T incubated with APC. Cells over-expressed
14 luciferase CRE-Luc reporter and were stimulated by FSK (10 nM) for 5-h before lysis, which was
15 then incubated with APC (concentration indicated) for 30 min before luciferase activity determination
16 (n=3 per treatment). Data are represented as mean ± SEM. *, p < 0.05; **, p < 0.01; p values were
17 determined by one-way ANOVA followed Dunnett’s multiple comparisons test. […]

HEK293T cells = test: MTT assay, HEK293T cells; assay type: cell-based, human; details: Supp. Fig.10 b; individual replicates; Ctrl about 100
Description: 1 Supplementary Figure 10. A57 is novel inhibitor of the CREB/CRTC2 protein complex.
2 a) The inhibitory-activity of A57 as determined by two-hybrid reporter assay. HEK293T cells were
3 co-transfected with CREB/CRTC2 two-hybrid reporter system plasmids, following incubation with
4 indicated small molecules (10 µM) overnight before luciferase reporter assays (n=4 per treatment).
5 One of three independent experiments is shown here. Data are represented as mean ± SEM. *,
6 p < 0.05; **, p < 0.01; p values were determined by one-way ANOVA followed Dunnett’s multiple
8 b) Combinatorial analysis of the cell toxicity and inhibitory activity of A57. The CREB/CRTC2-two
9 hybrid reporter activity (as a normalized percentage) is the X-axis, and the cell activity tested by MTT
10 assay (as a normalized percentage) is the Y-axis. n=3.
11 c) Immunoblot of P-CREB and CRTC2 de-phosphorylation in primary hepatocytes incubated with
12 A57 and APC (10 µM) 1-h prior to glucagon (100 nM) stimulation for 30 min. One result from three
13 experiments is shown here (top), and relative P-CREB normalized by CREB is presented as a bar
14 graph (bottom, n=3). […]
15 values were determined by two-way ANOVA followed Bonferroni’s multiple comparisons test. […]
18 as mean ± SEM. ns, p > 0.05; *, p < 0.05; **, p < 0.01; p values were determined by two-way ANOVA […]

PPARα, RXRα or LXRα = test: PPRE-LUC reporter in HEK293T; assay type: cell-based; details: for relative PPRE-LUC: individual replicates, Supp. Fig.6 c; for relative PPRE-LUC, mean: N=3
Description: 1 c) Luciferase reporter activity of PPRE-LUC (PPAR response element driven luciferase reporter) in
2 HEK293T cell transfected with expression plasmids for Ppara, Rxra or Lxra with 8-h incubation of
3 APC (10 µM). One of three independent experiments presented here. Data are represented as
4 mean ± SEM. (n=3 per treatment). *, p < 0.05; **, p < 0.01; p values were determined by two-way

HIS-CRTC2-S171A proteins = molecular target: T2, HIS-CRTC2-S171A proteins (Homo sapiens, UniProt Q53ET0, S171A); test: Surface plasmon resonance, immobilized HIS-CRTC2-S171A; assay type: binding
T2 construct: made in house; host or cells: E. coli
T2 sequence (Q53ET0 whole entry S171A): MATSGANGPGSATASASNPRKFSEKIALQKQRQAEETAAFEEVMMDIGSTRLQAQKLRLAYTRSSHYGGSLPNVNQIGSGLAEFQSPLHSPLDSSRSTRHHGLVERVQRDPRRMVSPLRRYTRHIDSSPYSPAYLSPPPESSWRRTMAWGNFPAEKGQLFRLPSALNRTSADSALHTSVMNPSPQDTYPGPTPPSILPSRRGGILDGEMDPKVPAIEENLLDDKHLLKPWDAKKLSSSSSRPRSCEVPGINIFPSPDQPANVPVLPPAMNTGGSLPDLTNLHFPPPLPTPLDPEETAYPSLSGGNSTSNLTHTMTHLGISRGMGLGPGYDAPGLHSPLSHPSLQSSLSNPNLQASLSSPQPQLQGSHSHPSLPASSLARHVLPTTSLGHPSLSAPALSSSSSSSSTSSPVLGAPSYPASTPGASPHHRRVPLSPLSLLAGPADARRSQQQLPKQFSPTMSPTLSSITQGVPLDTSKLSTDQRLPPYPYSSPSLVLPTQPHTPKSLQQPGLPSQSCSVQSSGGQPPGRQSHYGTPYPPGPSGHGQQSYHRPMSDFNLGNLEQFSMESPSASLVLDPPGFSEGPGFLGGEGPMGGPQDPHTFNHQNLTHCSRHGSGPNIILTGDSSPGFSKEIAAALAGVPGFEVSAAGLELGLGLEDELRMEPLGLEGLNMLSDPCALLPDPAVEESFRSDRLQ

In the case of CC(C)=CCc1cc(C=CC(=O)O)cc(CC=C(C)C)c1O [APC, 3,5-diprenyl-4-hydroxycinnamic acid], the “Relative MTT absortance-48H, mean” value (primary hepatocytes; APC 1 μM) is reported as 102, the “Relative MTT absortance-48H, mean” value (primary hepatocytes; APC 5 μM) is reported as 103.2 and the “Relative MTT absortance-48H, mean” value (primary hepatocytes; APC 25 μM) is reported as 101.9. The “Relative MTT absortance-48H, mean” value (primary hepatocytes; APC 100 μM) was 105.7, the hepatocyte viability (primary hepatocytes; APC up to 100 μM, 48-h) was “did not impair hepatocyte viability” and the “Relative MTT absortance-48H” value (primary hepatocytes; APC 1 uM) was 101.3514 and 105.1051 and 97.5976 and 102.8529 (2×). The “Relative MTT absortance-48H” value (primary hepatocytes; APC 5 uM) was 99.8499 and 98.3484 and 103.6036 and 105.1051 and 108.8589, the “Relative MTT absortance-48H” value (primary hepatocytes; APC 25 uM) was 96.6066 and 104.3544 and 100.6006 and 99.6096 and 108.1081 and the “Relative MTT absortance-48H” value (primary hepatocytes; APC 100 uM) was 107.3574 and 101.1111 and 106.6066 and 109.6096 and 103.6036. For the same compound, the “interaction of CREB and CRTC1” value (CREB / CRTC1 interaction) was “attenuated”, the Cell activity % (HEK293T cells) was 95.723% and 93.186% and 92.837% and the “activity of PPRE-luc induced by PPARα, RXRα or LXRα” value (PPARα, RXRα or LXRα; HEK293T, APC 10 µM, 8-h) was “did not alter”. For the same compound, the “relative PPRE-LUC, Mean Diff. APC - Ctrl” value (PPARα, RXRα or LXRα; overexpressed gene: LXRa) was 0.2098, the “relative PPRE-LUC” value (PPARα, RXRα or LXRα; overexpressed gene: LXRa) was 3.9435 and 4.3354 and 5.6775 and the “relative PPRE-LUC, mean” value (PPARα, RXRα or LXRα; overexpressed gene: LXRa) was 4.652. For the same compound, the “relative PPRE-LUC, Mean Diff. APC - Ctrl” value (PPARα, RXRα or LXRα; overexpressed gene: PPARa) was -2.353, the “relative PPRE-LUC” value (PPARα, RXRα or LXRα; overexpressed gene: PPARa) was 39.2490 and 43.4175 and 53.1308 and the “relative PPRE-LUC, mean” value (PPARα, RXRα or LXRα; overexpressed gene: PPARa) was 45.27. For the same compound, the “relative PPRE-LUC, Mean Diff. APC - Ctrl” value (PPARα, RXRα or LXRα; overexpressed gene: RXRa) was 3.509, the “relative PPRE-LUC” value (PPARα, RXRα or LXRα; overexpressed gene: RXRa) was 53.5690 and 51.6829 and 53.7514 and the “relative PPRE-LUC, mean” value (PPARα, RXRα or LXRα; overexpressed gene: RXRa) was 53. For the same compound, the “relative PPRE-LUC, Mean Diff. APC - Ctrl” value (PPARα, RXRα or LXRα; overexpressed gene: pcDNA) was -0.0701, the “relative PPRE-LUC” value (PPARα, RXRα or LXRα; overexpressed gene: pcDNA) was 0.7140 and 0.9259 and 1.1498 and the “relative PPRE-LUC, mean” value (PPARα, RXRα or LXRα; overexpressed gene: pcDNA) was 0.9299. The “affinity to CRTC2 (SPR)” value (HIS-CRTC2-S171A proteins) was “no affinity”.
